This note sets out measurements from US20140171434A1, “SUBSTITUTED IMIDAZOPYRIDINES AND IMIDAZOPYRIDAZINES AND THE USE THEREOF” (BAYER PHARMA AKTIENGESSELLSCHAFT, priority 2011, published 2014).

pIC50: −log10 of the molar value.

A short description of data set [1]: Pharmacokinetic parameters following intravenous administration to rats. It counts as in vivo, male Wistar rats. To be noted: rat, 0.3 mg/kg intravenous; for MRT / half-life: male, Wistar, plasma; for MRT: read-out: Mean residence time; for half-life: read-out: Terminal half-life (converted). Here is the method:
The pharmacokinetic parameters of the compounds of the formula (I) according to the invention are determined in male Wistar rats. The administration volume is 5 ml/kg. Intravenous administration is by means of a species-specific plasma/DMSO formulation (99/1). The taking of blood from rats is simplified by inserting a silicone catheter into the right Vena jugularis externa prior to substance administration. The surgical intervention takes place one day prior to the experiment with isofluran anesthesia and administration of an analgetic (atropine/rimadyl (3/1) 0.1 ml s.c.). Substance administration is as an i.v. bolus. Removal of blood from the rats is after 0.033, 0.083, 0.17, 0.5, 1, 2, 3, 4, 6, 8, 24 and 27 hours. The blood is removed into heparinized tubes. The blood plasma is then obtained by centrifugation; if required, it can be stored at −20° C. until further processing.
An internal standard (ZK 228859) is added to the samples of the compounds of the formula (I) according to the invention, calibration samples and QCs, and the protein is precipitated using excess acetonitrile. After addition of an ammonium acetate buffer (0.01 M, pH 6.8) and subsequent vortexing, the mixture is centrifuged at 1000 g and the supernatant is examined by LC-MS/MS (API 4000, AB Sciex). Chromatographic separation is carried out on an Agilent 1100-HPLC. The injection volume is 20 μl. The separation column used is a Phenomenex Gemini 5μ C18 110A 50×3 mm, adjusted to a temperature of 40° C. A binary mobile phase gradient at 500 μl/min is used (A: 0.01M ammonium acetate buffer pH 6.8, B: 0.1% formic acid in acetonitrile): 0 min (90% A), 1 min (90% A), 3 min (10% A), 4 min (10% A), 4.50 min (90% A), 6 min (90% A). The temperature of the Turbo V ion source is 400° C. The following MS instrument parameters are used: curtain gas 15 units, ion spray voltage 4.8 kV, gas 1 50 units, gas 2 40 units, CAD gas 8 units. The substances are quantified by peak heights or areas using extracted ion chromatograms of specific MRM experiments.
The plasma concentration/time plots determined are used to calculate the pharmacokinetic parameters such as AUC, Cmax, t1/2 (terminal half life), MRT (mean residence time) and CL (clearance), using the validated pharmacokinetic calculation program KinEx (Vers.3).
Since the substance quantification is performed in plasma, it is necessary to determine the blood/plasma distribution of the substance in order to be able to adjust the pharmacokinetic parameters correspondingly. For this purpose, a defined amount of substance is incubated in heparinized whole blood of the species in question in a rocking roller mixer for 20 min. After centrifugation at 1000 g, the plasma concentration is measured (see above) and determined by calculating the quotient of the cblood/cplasma values.
Following intravenous administration of 0.3 mg/kg of representative compounds according to the invention to rats, the data listed in Table 3 were obtained: […]

Data set [2] relates to recombinant guanylate cyclase reporter cell line. The experiment in a line: Effect on a recombinant guanylate cyclase reporter cell line. It counts as cell-based. Here is the method: The cellular activity of the compounds according to the invention is determined using a recombinant guanylate cyclase reporter cell line, as described in F. Wunder et al., Anal. Biochem. 339, 104-112 (2005).

The subject of data set [3] is rabbit aorta rings. The experiment in a line: Vasorelaxant action in vitro (phenylephrine-contracted rabbit aorta rings). Conditions: Oryctolagus cuniculus, phenylephrine contraction, 0.1% DMSO, read-out: IC50 (concentration needed to reduce the phenylephrine contraction by 50%). On the procedure:
Rabbits are stunned by a blow to the neck and exsanguinated. The aorta is removed, freed from adhering tissue and divided into rings of a width of 1.5 mm. The rings are placed individually under an initial tension in 5 ml organ baths with Krebs-Henseleit solution which is at 37° C., is gassed with carbogen and has the following composition (in each case mM): sodium chloride 119; potassium chloride: 4.8; calcium chloride dihydrate: 1; magnesium sulfate heptahydrate: 1.4; potassium dihydrogenphosphate: 1.2; sodium bicarbonate: 25; glucose: 10. The contractile force is determined with Statham UC2 cells, amplified and digitalized using A/D transducers (DAS 1802 HC, Keithley Instruments Munich), and recorded in parallel on linear recorders. To obtain a contraction, phenylephrine is added to the bath cumulatively in increasing concentration. After several control cycles, the substance to be investigated is added in each further run in increasing dosage in each case, and the height of the contraction achieved is compared with the height of the contraction reached in the last preceding run. This is used to calculate the concentration needed to reduce the magnitude of the control value by 50% (IC50 value). The standard administration volume is 5 μl; the DMSO content in the bath solution corresponds to 0.1%.

With `CC1(C)C(=O)Nc2nc(-c3nc(Cc4c(F)ccc(F)c4F)n4cc(Cl)ccc34)nnc21` [Example 11, 3-[6-Chloro-3-(2,3,6-trifluorobenzyl)imidazo[1,5-a]pyridin-1-yl]-7,7-dimethyl-5,7-dihydro-6H-pyrrolo[2,3-e][1,2,4]triazin-6-one], in data set [1], the MRT worked out at 9.4 h, the half-life is 7.2 h and the CLblood is 0.5 mL/min/kg. The “MEC (minimum effective concentration)” value in data set [2] was determined as 0.03 µM. Further, the pIC50 in data set [3] is 7.52.

With `CC1(C)C(=O)Nc2nc(-c3nc(Cc4ccccc4F)n4ncccc34)nc(I)c21` [Example 1, 2-[7-(2-Fluorobenzyl)imidazo[1,5-b]pyridazin-5-yl]-4-iodo-5,5-dimethyl-5,7-dihydro-6H-pyrrolo[2,3-d]pyrimidin-6-one], the “MEC (minimum effective concentration)” value in data set [2] turned out to be 0.1 µM.

`CC1(C)C(=O)Nc2nc(-c3nc(CCC(F)(F)C(F)(F)F)n4cc(F)ccc34)nnc21` [Example 12, 3-[6-Fluoro-3-(3,3,4,4,4-pentafluorobutyl)imidazo[1,5-a]pyridin-1-yl]-7,7-dimethyl-5,7-dihydro-6H-pyrrolo[2,3-e][1,2,4]triazin-6-one]: in data set [1], the MRT amounted to 4.6 h, the half-life was 5.2 h and the CLblood was found to be 2.67 mL/min/kg. Further, in data set [2], the “MEC (minimum effective concentration)” value was 1.0 µM. Besides, the pIC50 in data set [3] is 6.56.

Regarding `CC1(C)C(=O)Nc2nc(-c3nc(Cc4ccccc4F)n4ncccc34)ncc21` [Example 3, 2-[7-(2-Fluorobenzyl)imidazo[1,5-b]pyridazin-5-yl]-5,5-dimethyl-5,7-dihydro-6H-pyrrolo[2,3-d]pyrimidin-6-one], the “MEC (minimum effective concentration)” value in data set [2] is 0.03 µM. In addition, the pIC50 in data set [3] is 7.14.

As for `CC1(C)C(=O)Nc2nc(-c3nc(Cc4ccccc4F)n4ncccc34)nnc21` [Example 4, 3-[7-(2-Fluorobenzyl)imidazo[1,5-b]pyridazin-5-yl]-7,7-dimethyl-5,7-dihydro-6H-pyrrolo[2,3-e][1,2,4]triazin-6-one], the “MEC (minimum effective concentration)” value in data set [2] stood at 0.03 µM. Also, the pIC50 in data set [3] was 7.38.

On to `CC1(C)C(=O)Nc2nc(-c3nc(Cc4c(F)ccc(F)c4F)n4cc(Cl)ccc34)ncc21` [Example 7, 2-[6-Chloro-3-(2,3,6-trifluorobenzyl)imidazo[1,5-a]pyridin-1-yl]-5,5-dimethyl-5,7-dihydro-6H-pyrrolo[2,3-d]pyrimidin-6-one], for which the “MEC (minimum effective concentration)” value in data set [2] came out at 0.01 µM.

The term half-life denotes the time in which the quantity being followed falls by half.
